Laboratory results reported in patent US7163946B2 (Ligand Pharmaceuticals Incorporated, priority 2002, dated 2007).

Key:
Format in all cases: cell-based
hPR = target: T1, hPR (Homo sapiens, UniProt P06401); test: hPR cotransfection assay in CV-1 cells, antagonist mode; conditions: for Emax: CV-1, CV-1 cells, maximal inhibition of reference agonist at EC50 concentration, read-out: hPR Antagonist CV-1 Cells Eff. (%); for IC50: CV-1 cells
T1 sequence (P06401 1-933): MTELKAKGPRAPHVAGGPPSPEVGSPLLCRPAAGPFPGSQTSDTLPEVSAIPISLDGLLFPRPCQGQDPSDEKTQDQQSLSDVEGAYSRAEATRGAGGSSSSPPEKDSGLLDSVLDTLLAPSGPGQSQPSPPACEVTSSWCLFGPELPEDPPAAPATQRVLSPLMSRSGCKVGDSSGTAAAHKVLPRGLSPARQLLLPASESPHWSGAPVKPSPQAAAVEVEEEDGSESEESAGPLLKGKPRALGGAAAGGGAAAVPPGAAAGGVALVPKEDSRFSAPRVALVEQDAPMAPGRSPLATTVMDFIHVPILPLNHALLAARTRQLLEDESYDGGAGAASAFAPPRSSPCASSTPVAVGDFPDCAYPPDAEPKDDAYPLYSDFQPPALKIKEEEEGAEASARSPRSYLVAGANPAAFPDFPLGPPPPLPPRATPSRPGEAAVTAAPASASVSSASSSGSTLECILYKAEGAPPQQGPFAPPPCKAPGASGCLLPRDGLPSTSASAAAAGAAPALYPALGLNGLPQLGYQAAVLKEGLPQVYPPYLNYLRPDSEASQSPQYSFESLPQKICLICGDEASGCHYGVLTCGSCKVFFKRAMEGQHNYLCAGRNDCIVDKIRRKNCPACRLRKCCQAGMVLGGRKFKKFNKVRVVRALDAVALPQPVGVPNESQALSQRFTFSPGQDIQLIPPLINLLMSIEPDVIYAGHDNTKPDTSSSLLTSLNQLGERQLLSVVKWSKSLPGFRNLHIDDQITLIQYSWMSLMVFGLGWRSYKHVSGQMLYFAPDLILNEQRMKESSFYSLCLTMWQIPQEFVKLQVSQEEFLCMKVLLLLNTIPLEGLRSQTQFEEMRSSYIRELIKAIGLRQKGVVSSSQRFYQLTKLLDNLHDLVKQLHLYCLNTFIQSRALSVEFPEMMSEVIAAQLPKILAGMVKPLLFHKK

hGR = target: T2, hGR (Homo sapiens, UniProt P04150); test: hGR cotransfection assay (potency ratio to hPR); conditions: receptor-selectivity potency ratio, cotransfection assays
T2 sequence (P04150 1-777): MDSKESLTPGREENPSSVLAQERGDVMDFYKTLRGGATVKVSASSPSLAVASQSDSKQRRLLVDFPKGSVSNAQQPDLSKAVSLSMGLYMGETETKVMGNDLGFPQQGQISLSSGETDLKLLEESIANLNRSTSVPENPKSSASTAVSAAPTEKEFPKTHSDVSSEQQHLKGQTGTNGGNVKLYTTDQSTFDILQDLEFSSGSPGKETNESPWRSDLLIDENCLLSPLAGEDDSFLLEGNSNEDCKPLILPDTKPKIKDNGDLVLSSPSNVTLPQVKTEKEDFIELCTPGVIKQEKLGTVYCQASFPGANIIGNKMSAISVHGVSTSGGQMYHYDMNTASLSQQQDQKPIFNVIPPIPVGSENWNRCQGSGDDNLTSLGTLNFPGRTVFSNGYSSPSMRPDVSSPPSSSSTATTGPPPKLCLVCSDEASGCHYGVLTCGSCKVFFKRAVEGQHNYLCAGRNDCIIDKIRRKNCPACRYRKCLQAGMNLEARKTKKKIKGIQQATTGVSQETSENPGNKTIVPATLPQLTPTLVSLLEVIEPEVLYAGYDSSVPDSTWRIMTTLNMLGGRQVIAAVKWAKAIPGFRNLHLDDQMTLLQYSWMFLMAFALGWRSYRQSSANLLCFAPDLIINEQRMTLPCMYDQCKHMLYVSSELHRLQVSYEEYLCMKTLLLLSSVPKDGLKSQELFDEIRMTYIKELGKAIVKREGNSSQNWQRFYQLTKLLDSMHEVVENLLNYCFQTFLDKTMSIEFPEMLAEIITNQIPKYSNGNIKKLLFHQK

[1] = target: T3, human mineralocorticoid receptor (hMR) (Homo sapiens, UniProt P08235); test: hMR cotransfection assay (potency ratio to hPR); conditions: receptor-selectivity potency ratio, cotransfection assays
T3 sequence (P08235 1-984): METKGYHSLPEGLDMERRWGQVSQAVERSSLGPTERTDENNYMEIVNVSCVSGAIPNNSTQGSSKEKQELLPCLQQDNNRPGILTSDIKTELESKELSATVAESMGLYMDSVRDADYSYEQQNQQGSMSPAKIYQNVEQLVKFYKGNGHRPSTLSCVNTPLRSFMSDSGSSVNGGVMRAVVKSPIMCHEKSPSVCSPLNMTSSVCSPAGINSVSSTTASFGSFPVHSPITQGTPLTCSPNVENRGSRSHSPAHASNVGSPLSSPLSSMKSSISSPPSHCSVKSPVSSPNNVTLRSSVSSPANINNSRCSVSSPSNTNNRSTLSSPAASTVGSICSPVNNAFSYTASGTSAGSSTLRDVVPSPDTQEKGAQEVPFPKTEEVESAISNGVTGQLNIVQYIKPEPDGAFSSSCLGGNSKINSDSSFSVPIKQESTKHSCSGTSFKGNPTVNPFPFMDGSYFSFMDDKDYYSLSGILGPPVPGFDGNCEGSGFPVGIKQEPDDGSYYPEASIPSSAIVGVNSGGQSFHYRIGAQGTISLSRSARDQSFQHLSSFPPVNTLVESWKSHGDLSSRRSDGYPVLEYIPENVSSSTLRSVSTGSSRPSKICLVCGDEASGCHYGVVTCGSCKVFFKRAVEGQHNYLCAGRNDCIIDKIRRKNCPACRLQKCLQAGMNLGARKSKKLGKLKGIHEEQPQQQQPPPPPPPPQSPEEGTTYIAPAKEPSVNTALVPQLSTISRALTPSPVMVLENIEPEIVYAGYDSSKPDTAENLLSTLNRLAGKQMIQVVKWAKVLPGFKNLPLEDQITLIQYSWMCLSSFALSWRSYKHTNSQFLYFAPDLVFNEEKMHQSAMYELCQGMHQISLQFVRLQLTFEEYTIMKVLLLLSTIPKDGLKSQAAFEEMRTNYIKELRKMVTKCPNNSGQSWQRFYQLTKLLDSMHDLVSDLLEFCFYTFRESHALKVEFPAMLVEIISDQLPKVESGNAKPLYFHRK

| Emax (hPR) [%] | IC50 (hPR) [µM] | hGR EC50 or IC50/hPR EC50 (hGR) | hMR EC50 or IC50/hPR EC50 [1] | SMILES |
| --- | --- | --- | --- | --- |
| < 20 | > 10 | 10 | >1000 | CC1=CC(C)(C)Nc2ccc3c(c21)C(c1ccccc1)Oc1c(F)cc(F)cc1-3 (racemic) [Compound 33, (±)-7,9-difluoro-5-phenyl-1,2-dihydro-2,2,4-trimethyl-5H-chromeno[3,4-f]quinoline] |
| < 20 | > 10 | >1000 | >1000 | CC1=CC(C)(C)Nc2ccc3c(c21)C(c1cccc(C)c1)Oc1c(F)cc(F)cc1-3 (racemic) [Compound 34, (±)-7,9-difluoro-5-(3-methylphenyl)-1,2-dihydro-2,2,4-trimethyl-5H-chromeno[3,4-f]quinoline] |
| < 20 | > 10 | 54 | >1000 | CC1=CC(C)(C)Nc2ccc3c(c21)C(c1ccc(Cl)c(C)c1)Oc1c(F)cc(F)cc1-3 (racemic) [Compound 37, (±)-7,9-difluoro-5-(4-chloro-3-methylphenyl)-1,2-dihydro-2,2,4-trimethyl-5H-chromeno[3,4-f]quinoline] |
| < 20 | > 10 | 105 | 905 | CC1=CC(C)(C)Nc2ccc3c(c21)C(c1cccc(Cl)c1)Oc1c(F)cc(F)cc1-3 (racemic) [Compound 41, (±)-7,9-difluoro-5-(3-chlorophenyl)-1,2-dihydro-2,2,4-trimethyl-5H-chromeno[3,4-f]quinoline] |
| < 20 | > 10 | 8.8 | >1000 | CC1=CC(C)(C)Nc2ccc3c(c21)C(c1cc2ccccc2s1)Oc1c(F)cc(F)cc1-3 (racemic) [Compound 63, (±)-7,9-difluoro-5-(benzo[b]thien-2-yl)-1,2-dihydro-2,2,4-trimethyl-5H-chromeno[3,4-f]quinoline] |
| < 20 | > 10 | >1000 | >1000 | CC#CC1Oc2c(F)cc(F)cc2-c2ccc3c(c21)C(C)=CC(C)(C)N3 (racemic) [Compound 74, (±)-7,9-difluoro-5-(1-propynyl)-1,2-dihydro-2,2,4-trimethyl-5H-chromeno[3,4-f]quinoline] |
| < 20 | > 10 | 290 | >1000 | CC1=CC(C)(C)Nc2ccc3c(c21)/C(=C/c1ccccc1)Oc1c(F)cc(F)cc1-3 [Compound 10, 7,9-difluoro-5(Z)-benzylidene-1,2-dihydro-2,2,4-trimethyl-5H-chromeno[3,4-f]quinoline] |
| < 20 | > 10 | 365 | >1000 | CC1=CC(C)(C)Nc2ccc3c(c21)/C(=C/c1ccncc1)Oc1c(F)cc(F)cc1-3 [Compound 14, 7,9-difluoro-5(Z)-(4-picolylidene)-1,2-dihydro-2,2,4-trimethyl-5H-chromeno[3,4-f]quinoline] |
| < 20 | > 10 | 30 | >1000 | CC1=CC(C)(C)Nc2ccc3c(c21)/C(=C/c1cccc(F)c1)Oc1c(F)cc(F)cc1-3 [Compound 15, 7,9-difluoro-5(Z)-(3-fluorobenzylidene)-1,2-dihydro-2,2,4-trimethyl-5H-chromeno[3,4-f]quinoline] |
| < 20 | > 10 | 66 | >1000 | CC1=CC(C)(C)Nc2ccc3c(c21)/C(=C/c1cc(F)ccc1F)Oc1c(F)cc(F)cc1-3 [Compound 17, 7,9-difluoro-5(Z)-(2,5-difluorobenzylidene)-1,2-dihydro-2,2,4-trimethyl-5H-chromeno[3,4-f]quinoline] |
| < 20 | > 10 | 77 | >1000 | COc1ccccc1/C=C1\Oc2c(F)cc(F)cc2-c2ccc3c(c21)C(C)=CC(C)(C)N3 [Compound 18, 7,9-difluoro-5(Z)-(2-methoxybenzylidene)-1,2-dihydro-2,2,4-trimethyl-5H-chromeno[3,4-f]quinoline] |
| < 20 | > 10 | 432 | >1000 | CC1=CC(C)(C)Nc2ccc3c(c21)/C(=C/c1cc(F)ccc1C)Oc1c(F)cc(F)cc1-3 [Compound 19, 7,9-difluoro-5(Z)-(2-methyl-5-fluorobenzylidene)-1,2-dihydro-2,2,4-trimethyl-5H-chromeno[3,4-f]quinoline] |
| < 20 | > 10 | 27 | >1000 | CC1=CC(C)(C)Nc2ccc3c(c21)/C(=C/c1ccncc1C)Oc1c(F)cc(F)cc1-3 [Compound 20, 7,9-difluoro-5(Z)-(3-methyl-4-picolylidene)-1,2-dihydro-2,2,4-trimethyl-5H-chromeno[3,4-f]quinoline] |
| < 20 | > 10 | 342 | >1000 | COc1ccc(F)cc1/C=C1\Oc2c(F)cc(F)cc2-c2ccc3c(c21)C(C)=CC(C)(C)N3 [Compound 26, 7,9-difluoro-5(Z)-(2-methoxy-5-fluorobenzylidene)-1,2-dihydro-2,2,4-trimethyl-5H-chromeno[3,4-f]quinoline] |
| < 20 | > 10 | 83 | >1000 | CC1=CC(C)(C)Nc2ccc3c(c21)/C(=C/Br)Oc1c(F)cc(F)cc1-3 [Compound 29, 7,9-difluoro-5(Z)-bromomethylidene-1,2-dihydro-2,2,4-trimethyl-5H-chromeno[3,4-f]quinoline] |
